Laboratory results taken from paper PMC3495945, “Org 214007-0: A Novel Non-Steroidal Selective Glucocorticoid Receptor Modulator with Full Anti-Inflammatory Properties and Improved Therapeutic Index” (PLoS ONE, 2012).

Assays:
THP-1 cells = test: Gene expression profiling (microarray) in THP-1 cells; assay type: cell-based, human; details: THP-1, 1 μM, 6 hours, top 25 genes, prednisolone set at 100%; for Max. eff., mean repression of genes, microarray: IFNγ/TNFα; for Max. eff., mean induction of genes, microarray: non-stimulated
Experimental: THP-1 cells were incubated with glucocorticoid in the presence of either DMSO (control) or IFNγ/TNFα (220 ng/ml/375 ng/ml). After 6 hours total RNA was isolated and further processed for microarray hybridization as described for the HepG2 cells. The data from all microarray experiments have been deposited in the NCBI Gene Expression Omnibus (GEO) under accession number (identifier will be included in proof). […] Expression of FKBP51, MCP-1, IL-6 and IL-8 protein was measured by specific […]; #A[…] [MCP-1], #A[…] [IL-6] and #A[…] [IL-8]) according to the manufacturer manual. […] Expression of FKBP51, DUSP1 and GILZ was measured by Q-PCR according to the same procedure as described for the HepG2 cells. In this case the following primer-pairs were used: for GAPDH: [NT] and [NT]; for FKBP51: [NT] and [NT]; for DUSP1: [NT] and [NT]; for GILZ: [NT] and [NT]. For the evaluation of protein expression, cells were incubated overnight with a whole dose range of compounds. Supernatants were collected to determine cytokine levels and cell lysates were generated by repeated freeze-thaw cycles to measure expression of FKBP51 protein. Expression of FKBP51, MCP-1, IL-6 and IL-8 was measured by specific […]; #A[…] [MCP-1], #A[…] [IL-6] and #A[…] [IL-8]) according to the manufacturer manual. […] Samples were incubated for 60 min at 23 C. […] Plates were measured using an EnVision-Alpha Reader.

[1] = tested on: muscle tissue from arthritic mice; test: Microarray on muscle tissue mRNA from CIA mice; assay type: in vivo, mouse; details: day 21, 2.5 hours after final oral dose, 1.5 mg/kg prednisolone or 0.3 mg/kg Org 214007-0, prednisolone = 100%
Excerpt: Besides these groups of mice, one group of healthy mice (sham-immunized and vehicle-treated) was included. Collected tissue was used to isolate mRNA for microarray analysis. […] We also calculated a mean fold change for all induced and repressed genes by both compounds derived from this microarray. […] Two and a half hours after the final treatment animals were sacrificed and samples were collected from the thigh muscle (musculus tensor fasciae latae and musculus rectus femoris). Samples were stored immediately at −80°C and send to Covance (Princeton, New Jersey) for RNA extraction and subsequent analysis of gene expression on the Mouse Genome 430A 2.0 array. For statistical analysis, the. CEL files obtained after hybridization were analyzed with the R (www.r-project.org) and the BioConductor software package (www.bioconductor.org) as described previously. Normalization was done using gcrma. Building of the experimental design and calculation of the ratios was done with the limma package. Differentially expressed probe sets were selected on basis of the fold change and the adjusted p-value (Benjamini-Hochberg correction). Multivariate data analysis and clustering was done with standard methods in the R software package (www.r-project.org). A therapeutic index for Org 214007-0 was calculated in the same way as was described for the THP-1 microarray data.

[2] = tested on: anti-CD3-induced IL-2 release; test: anti-CD3-induced IL-2 mouse model; assay type: in vivo; details: oral; for ED50: Mus musculus, 1 hour before anti-CD3 i.p., Balb/c mice, read-out: ED50, reduction of anti-CD3-induced IL-2 serum levels; for efficacy, inhibition of anti-CD3-induced IL-2: relative to 10 mg/kg A420983 (100%)
Experimental: For both the LPS-induced TNFα as well as the anti-CD3 induced IL-2 model, female Balb/c mice of 8–12 week old were used. Mice were treated orally with 0.2 ml compound or vehicle (water/mannitol (5%) with 5% DMSO/5% chremophore for the LPS model or with 0.5% gelatine for the anti-CD3 model). One hour after oral treatment animals were challenged i.p. with 0.2 ml of either 20 μg/mouse LPS (Sigma, E. coli serotype 055:B5) or 5 µg/mouse hamster anti-CD3 monoclonal (BD Biosciences Pharmingen, art. nr. 553057, clone 145-2C11). Ninety minutes after LPS injection or 3 hours after anti-CD3 challenge, blood samples were collected and serum levels of TNFα or IL-2 were determined via specific ELISAs (BD Biosciences Pharmingen, San Diego, CA, USA). In the experiment that included treatment with RU486 to block GR, mice were dosed subcutaneously with 50 mg/kg RU486 30 minutes before the oral compound dosing. ED50 and % efficacy (maximal percentage inhibition of TNFα or IL-2 release) are determined using a 3 parameter sigmoidal curve calculation. Statistical analysis of the results was performed using an one-way ANOVA (log) test.

Compound	Max. eff., mean repression of genes, microarray (THP-1 cells) [%]	Max. eff., mean induction of genes, microarray (THP-1 cells) [%]	Max. eff., mean induction of genes, microarray [1] [%]	Max. eff., mean repression of genes, microarray [1] [%]	ED50 [2] [mg/kg]	efficacy, inhibition of anti-CD3-induced IL-2 [2] [%]	Max. eff., mean induction of genes, microarray (THP-1 cells; listed as Org) [%]
C[C@]12C=CC(=O)C=C1CC[C@@H]1[C@@H]2[C@@H](O)C[C@@]2(C)[C@H]1CC[C@]2(O)C(=O)CO [prednisolone, reference compound]	100	100	100	100	~10	75	–
Cc1nnsc1C(=O)N[C@H]1CCN2c3ccc(C#N)cc3[C@@H](C)c3ccccc3[C@@H]2C1 [Org 214007-0]	48.3	–	25.7	87.7	~0.3	75	18.9
